Series [1] has as its system Jurkat cells. Briefly: Adaptation to G2 cell cycle arrest (G1 increment) in X-ray pre-arrested Jurkat cells, flow cytometry. Conditions: for IC50: Homo sapiens, Jurkat, 24 h, concentration causing half-maximal increase of % cells in G1 phase (G1 increment), Jurkat pre-arrested by 10 Gy X-ray, 24 hours with compound. It counts as cell-based, human. In short, it runs like this:
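Jurkat cells were G2-arrested by 10 Gy X-ray irradiation and held 24 h in 10% FCS/RPMI1640 at 37 °C. They were then exposed to compounds for a further 24 h. Propidium iodide staining and flow cytometry gave the %G1 cells, and IC50 (μM) is the concentration giving a half-maximal G1 increment.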
A general note: Flow cytometry measures light scatter and fluorescence of single cells or particles in a stream.

For series [2], the system named is ARH-77 cells. Briefly: Survival of SCID mice with xenografts of ARH-77 cells. Conditions: for cytotoxicity against normal cells (the mouse graft host): administered intraperitoneally or orally to SCID mice with ARH-77 xenografts.
Procedure: For the experiment shown in FIG. 6, mice received 1.9×10^6 ARH-77 cells by intraperitoneal transplantation. […] Mice treated with dexamethasone (“Dexa”) received an intraperitoneal injection of 2 mg/kg dexamethasone. Vehicle treated control animals received intraperitoneal vehicle injection. Each injection was performed on day 1, day 2 and day 3 after transplantation of ARH-77 cells.
For the experiment shown in FIG. 7, mice received 0.8×10^6 ARH-77 cells by intraperitoneal transplantation.
For the experiment shown in FIG. 8, mice received 4.1×10^6 ARH-77 cells by intraperitoneal transplantation.

Entries after “also recorded” stand apart in the source; their conditions may differ.

The source of these data is patent US8415357B2 (Canbas Co., Ltd., priority 2007, dated 2013).

The IC50 is the concentration that gives 50% inhibition. Regarding `CC1=C(CCC(=O)OC(C)(C)C)C(=O)N(Nc2ccc(C(F)(F)F)c(Cl)n2)C1=O` [Compound S01860, tert-butyl 3-(1-{[6-chloro-5-(trifluoromethyl)(2-pyridyl)]amino}-4-methyl-2,5-dioxoazolin-3-yl) propanoate], in series [1] (Table 2), the IC50 stood at 30 nM. The “percentage of cells in G1 phase” value in series [1] (Jurkat cells pre-arrested at G2 by X-ray 10 Gy, 0.019 μM to 0.625 μM, 24 hours) is “dose-dependent increase in the percentage of cells in G1 phase; also recorded: significant increase in the number of G1 cells”. In addition, the “first decrease in survival, days after transplantation” value in series [2] (0.8×10^6 ARH-77 cells i.p., single oral administration 750 mg/kg on Day 1) came to 70 days. The “survival at 85 days” value in series [2] (0.8×10^6 ARH-77 cells i.p., single oral administration 750 mg/kg on Day 1, control about 20%) was approximately 90%. The “cytotoxicity against normal cells (the mouse graft host)” value (shortened to “cytotoxicity against normal cells”) in series [2] was “no detectable cytotoxicity against normal cells”.
Take `CC1=C(COCCC(C)C)C(=O)N(Nc2ccc(C(F)(F)F)c(Cl)n2)C1=O` [Compound S03405, 1-{[6-chloro-5-(trifluoromethyl)(2-pyridyl)]amino}-4-methyl-3-[(3-methylbutoxy)methyl]azoline-2,5-dione]: the concentration for half-maximal inhibition (IC50) in series [1] (Table 3) was less than 19 nM. Further, in series [2], the “cytotoxicity against normal cells” value is “no detectable cytotoxicity against normal cells”.
Turning to `CCCCOCC1=C(C)C(=O)N(Nc2ccc(C(F)(F)F)c(Cl)n2)C1=O` [Compound S03518, 3-(butoxymethyl)-1-{[6-chloro-5-(trifluoromethyl)(2-pyridyl)]amino}-4-methylazoline-2,5-dione], the 50% inhibitory concentration (IC50) in series [1] (Table 3) amounted to 20 nM. The “cytotoxicity against normal cells” value in series [2] was “no detectable cytotoxicity against normal cells”.
The matching figures for `CC1=C(COCCC(C)(C)C)C(=O)N(Nc2ccc(C(F)(F)F)c(Cl)n2)C1=O` [Compound S03747, 3-[(3,3-dimethylbutoxy)methyl]-1-{[6-chloro-5-(trifluoromethyl) (2-pyridyl)]amino}-4-methylazoline-2,5-dione]: less than 19 nM and “no detectable cytotoxicity against normal cells”.
As to `CC1=C(COCC(C)C)C(=O)N(Nc2ccc(C(F)(F)F)c(Cl)n2)C1=O` [Compound S03963, 1-{[6-chloro-5-(trifluoromethyl)(2-pyridyl)]amino}-4-methyl-3-[(2-methylpropoxy)methyl]azoline-2,5-dione], the IC50 in series [1] (Table 3) was less than 19 nM.
Regarding `CC1=C(COC(C)CC(C)C)C(=O)N(Nc2ccc(C(F)(F)F)c(Cl)n2)C1=O` (centres unmarked) [Compound S03964, 4-[(1,3-dimethylbutoxy)methyl]-1-{[6-chloro-5-(trifluoromethyl) (2-pyridyl)]amino}-3-methylazoline-2,5-dione], in series [1] (Table 3), the IC50 is 40 nM.
Same read-out and setting: to `CCCOCCC1=C(C)C(=O)N(Nc2ccc(C(F)(F)F)c(Cl)n2)C1=O` [Compound S04034, 1-{[6-chloro-5-(trifluoromethyl)(2-pyridyl)]amino}-3-methyl-4-(2-propoxyethyl)azoline-2,5-dione] belongs 40 nM.
